Measured values reported in patent publication US20250090515A1, “1-Deoxynojirimycin To Mitigate Hepatic Ischemia- Reperfusion” (KING FAISAL UNIVERSITY, priority 2023, published 2025).

Legend:
Type in all cases: in vivo, Wistar male rats
H I/R-induced injury [1] = assay: Histopathological examination (H&E, Suzuki grading) of ischemic liver
Experimental: (§1) Wistar male rats (age: 6-8 weeks; weight: 200-230 g) were obtained from Experimental Animal Research Centre, King Saud University, Riyadh, K S A. The animals were acclimatized with standard laboratory food and water ad libitum in ventilated cages system (12 h light/dark cycles, 20.3-23.1° C.) then kept throughout the whole experiment under the same conditions.
(§2) Rats were anesthetized with isoflurane with oxygen (2%, 0.5 L/h) throughout the whole surgery, under heat control and aseptic conditions. Animals' abdomen was shaved and sterilized, and a surgical incision (about 3 cm) from the pubic to the sternum was executed. The portal triad, comprising the hepatic artery, portal vein, and common bile duct, was clamped using a micro-vascular clamp for 60 min to prompt ischemia. Hepatic reperfusion was accompanied by releasing the micro-vascular clamp and permitted reperfusion for six hours. The sham-operated animals were subjected to all the procedures that occurred during H I/R, deprived of blood flow blockage.
1-Deoxynojirimycin hydrochloride (1-DNJ) was purchased from Merck (Merck & Co., USA, product number D 9305). 1-DNJ was administered by gavage orally after being suspended in 1% carboxymethyl cellulose (CMC) solution. 1-DNJ dose (50 and 100 mg/kg) selection was based on previous studies. A total of 30 Wistar rats were haphazardly assigned into five groups (six rats/group). […]

H I/R-induced injury [2] = assay: Apoptotic markers (caspase 3, caspase 9) ELISA after hepatic ischemia-reperfusion; settings: compared to H I/R animals
Experimental: as §1, §2
(§3) 1-Deoxynojirimycin hydrochloride (1-DNJ) was purchased from Merck (Merck & Co., USA, product number D 9305). 1-DNJ was administered by gavage orally after being suspended in 1% carboxymethyl cellulose (CMC) solution. 1-DNJ dose (50 and 100 mg/kg) selection was based on previous studies. A total of 30 Wistar rats were haphazardly assigned into five groups (six rats/group). The sham group in which animals were given vehicle (1% CMC) orally for two weeks and subjected to sham steps. 1-DNJ+Sham group in which rats were administered 1-DNJ (100 mg/kg/day) for two weeks and then subjected to sham steps. Third group, the H I/R group, in which rats were administered 1% CMC for two weeks and then hepatic ischemia for 60 min followed by 6 hours reperfusion was implemented. Finally, 1-DNJ 50+H I/R and 1-DNJ 100+H I/R groups in which rats were pretreated with 1-DNJ (50, 100 mg/kg/day) respectively orally for two weeks, then subjected to hepatic I/R surgical procedure.
Once the reperfusion period was completed, animals' blood was obtained through the hearts, centrifuged at 4000×g for 15 min at 4° C., and stored at −20° C. to be utilized in the biochemical estimation of liver function tests, including ALT, AST, ALP, and LDH. Moreover, hepatic tissues were isolated, washed in cool PBS, and distributed in three portions. […]
Inflammation markers including TNF-α (ab46070), […], IL-6 (ab100772) NFκB (ab133112) and IL-10 (ab214566), ELISA kits were obtained from Abcam Co., (Eugene, OR, USA). […] These markers were measured according to the manufacturer's instructions using a microplate reader SpectraMax i3X (Molecular devices San Jose, CA, USA).

H I/R-induced injury [3] = assay: Hepatic function biomarkers (serum ALT, AST, ALP, LDH) after hepatic ischemia-reperfusion; settings: compared to H I/R animals
Experimental: as §1, §2, §3
(§4) Once the reperfusion period was completed, animals' blood was obtained through the hearts, centrifuged at 4000×g for 15 min at 4° C., and stored at −20° C. to be utilized in the biochemical estimation of liver function tests, including ALT, AST, ALP, and LDH. Moreover, hepatic tissues were isolated, washed in cool PBS, and distributed in three portions. The first part was homogenized with PBS, centrifuged at 10,000×g for 15 min at 4° C., and consumed to evaluate oxidative stress and ELISA biomarkers. The second portion was stored at −20° C. for subsequent qRT-PCR and western blot analysis. The third part was fixed with 10% formalin buffered saline to estimate the histopathological variations as well as the immunohistochemical manifestation.
(§5) One-way ANOVA followed by Tukey-Kramer as a post hoc test were executed for multiple comparisons between different experimental groups. p as a level of probability was set at 0.05, indicating the significance level. All statistical analyses were performed using Graph Pad software (version 8, CA, USA).
Rat Alanine Aminotransferase (ALT) ELISA kit (ab285264), Aspartate Aminotransferase (AST) ELISA kit (ab263883), and Alkaline Phosphatase (ALP) colorimetric assay kit (ab83369), Lactate Dehydrogenase (LDH) colorimetric assay kit (ab102526) were obtained from Abcam (Boston, MA, USA) and utilized following the manufacturer's instructions.

H I/R-induced injury [4] = assay: Hepatic oxidative stress biomarkers in hepatic tissue homogenate after hepatic ischemia-reperfusion; settings: compared to H I/R animals
Experimental: as §1, §2, §3, §4, §5
Oxidative stress-related biomarkers, including antioxidant and lipid peroxidation enzymes such as CAT, SOD, GST, GSH, MDA, and NO contents, were monitored in the hepatic tissue homogenate. Malondialdehyde (MDA; ab238537), glutathione (GSH, ab65322), glutathione-s-transferase (GST, ab65326), nitric oxide (NO, ab272517) assay kits were purchased from Abeam Inc. (Cambridge, UK). Superoxide dismutase (SOD; MBS036924) and catalase (MBS726781) ELISA kits were obtained from My BioSource (San Diego, CA, USA). All the procedures were executed in accordance with the manufacturer's directions.

[5] = 1-DNJ 50 mg/kg/day orally for 2 weeks before H I/R
[6] = 1-DNJ 100 mg/kg/day orally for 2 weeks before H I/R

SMILES: Cl.OC[C@H]1NC[C@H](O)[C@@H](O)[C@@H]1O [1-DNJ, 1-Deoxynojirimycin hydrochloride]
- histopathological changes by Suzuki scores (congestion, vacuolation, necrosis) (H I/R-induced injury [1]; 1-DNJ preconditioned animals (50 and 100 mg/kg/day orally, 2 weeks), related to H I/R animals): substantial reduction in hepatic congestion and hepatocellular vacuolation and necrosis
- histopathological findings (H&E sections) (H I/R-induced injury [1]; 1-DNJ pretreated groups (50 and 100 mg/kg/day orally, 2 weeks) before H I/R): re-established hepatic parenchyma, less hepatocellular necrosis, fewer congested hepatic sinusoids, and portal vasculatures with slight vacuolation
- percentage reduction in caspase 3 (H I/R-induced injury [2]; [5]): 27.62%
- percentage reduction in caspase 9 (H I/R-induced injury [2]; [5]): 20.09%
- percentage reduction in caspase 3 (H I/R-induced injury [2]; [6]): 41.23%
- percentage reduction in caspase 9 (H I/R-induced injury [2]; [6]): 24.86%
- percentage reduction in ALP (H I/R-induced injury [3]; [5]): 29.75%
- percentage reduction in ALT (H I/R-induced injury [3]; [5]): 22.26%
- percentage reduction in AST (H I/R-induced injury [3]; [5]): 26.96%
- percentage reduction in LDH (H I/R-induced injury [3]; [5]): 24.39%
- percentage reduction in ALP (H I/R-induced injury [3]; [6]): 44.53%
- percentage reduction in ALT (H I/R-induced injury [3]; [6]): 43.11%
- percentage reduction in AST (H I/R-induced injury [3]; [6]): 41.65%
- percentage reduction in LDH (H I/R-induced injury [3]; [6]): 48.63%
- percentage elevation in CAT (H I/R-induced injury [4]; [5]): 114.24%
- percentage elevation in GSH (H I/R-induced injury [4]; [5]): 130.82%
- percentage elevation in GST (H I/R-induced injury [4]; [5]): 49.42%
- percentage elevation in SOD (H I/R-induced injury [4]; [5]): 60.80%
- percentage reduction in MDA (H I/R-induced injury [4]; [5]): 24.18%
- percentage reduction in NO (H I/R-induced injury [4]; [5]): 40.77%
- percentage elevation in CAT (H I/R-induced injury [4]; [6]): 161.09%
- percentage elevation in GSH (H I/R-induced injury [4]; [6]): 194.64%
- percentage elevation in GST (H I/R-induced injury [4]; [6]): 99.02%
- percentage elevation in SOD (H I/R-induced injury [4]; [6]): 89.51%
- percentage reduction in MDA (H I/R-induced injury [4]; [6]): 30.71%
- percentage reduction in NO (H I/R-induced injury [4]; [6]): 55.05%
